Test system: patients with psoriatic arthritis
Test: Phase 2 trial in psoriatic arthritis: PASI75 response at week 16
Format: in vivo, human
Conditions: for Interaction Term for PASI75 response (ratio of odds ratios): week 16
Procedure: In a double-blind Phase 2 trial, 203 patients with psoriatic arthritis were randomized into three groups: deucravacitinib 6 mg once daily (N=70), deucravacitinib 12 mg once daily (N=67), or placebo (N=66). All subjects had active psoriatic arthritis according to the Classification Criteria for Psoriatic Arthritis (CASPAR); for active disease, these criteria required ≥3 tender joint count, ≥3 swollen joint count, and a C-reactive protein level above 3 mg/L. Other inclusion criteria included the following: presence of at least one plaque psoriasis lesion, and prior treatment failure with a non-biologic disease modifying anti-rheumatic drug, a non-steroidal anti-inflammatory drug, or a steroid. With respect to treatment history, approximately 70% of subjects had not received prior treatment with a biologic and were biologic naïve, while up to 30% of subjects had failed or had been intolerant to one TNF-inhibitor (TNF=Tumor necrosis factor, also known as TNFα). Randomization was stratified by prior TNF-inhibitor use (experienced/naïve) and body weight (<90 kg and ≥90 kg).
Clinical measures included the Psoriasis […] (PASI) score for skin psoriasis, American College of Rheumatology 20 (ACR20) response, Psoriatic Arthritis Disease Activity Score (PASDAS), Health Assessment Questionnaire-Disability Index (HAQ-DI), and Disease Activity Score 28 CRP (DAS28). To evaluate the predictive value of different protein measurements for the clinical response to deucravacitinib, baseline protein concentrations for responders and non-responders, as defined by ACR20 or PASI75 at week 16, were compared for each arm (placebo, 6 mg deucravacitinib once-daily, and 12 mg deucravacitinib once-daily).
In addition, a logistic regression model was fit, to determine whether baseline disease score (dichotomized by the median baseline score, into baseline score high and baseline score low groups) was associated with response status. The model generated an odds ratio for each dosed arm versus placebo, in baseline score high and baseline score low groups.
Boxplots for baseline protein level by response were generated with a horizontal line indicating the median protein level at baseline. For each treatment arm, a two-sample t-test was performed to test whether mean baseline serum protein level was different in responders versus non-responders. A Wilcoxon rank sum test (Mann-Whitney U test) was also performed to evaluate the difference in median serum protein level between responders and non-responders. Further, barplots of ACR20 and PASI75 response rate at week 16 for each treatment arm were generated for all subjects (protein level high and protein level low subjects, dichotomized according to median baseline level). Line plots of ACR20 and PASI75 response rate over time for each treatment arm were generated for protein level high and protein level low groups. Logistic regression models were also fit to evaluate associations between baseline protein levels and clinical outcome.
For certain analyses described herein, patients were dichotomized by median values (e.g., of the proteins listed above or other measures) into “high” and “low” groups, such that the high group had values above the median and the low group had values less than or equal to the median.
In addition, logistic regression models were fit for response measures ACR20 and PASI75, to generate the odds ratio of each of the deucravacitinib treatment arms versus placebo, in BD2-high and BD2-low groups. The following logistic regression models were used: • For ACR20 response status: ACR20 (Y/N)=treatment arm+BD2 group+treatment arm*BD2 group+TNF-inhibitor use+baseline weight (continuous). • For PASI75 response status: PASI75 (Y/N)=treatment arm+BD2 group+treatment arm*BD2 group+TNF-inhibitor use+baseline weight (continuous). […]

[1] = 12 mg QD, Above median baseline CRP level
[2] = 12 mg QD, Below median baseline CRP level

Structure (SMILES): [2H]C([2H])([2H])NC(=O)c1nnc(NC(=O)C2CC2)cc1Nc1cccc(-c2ncn(C)n2)c1OC [deucravacitinib, 6-(cyclopropanecarboxamido)-4-((2-methoxy-3-(1-methyl-1H-1,2,4-triazol-3-yl)phenyl)amino)-N-(methyl-d3)pyridazine-3-carboxamide]
- Number of subjects (6 mg QD, PASI75 responder, BD2-high-PASI-low): 4
- Number of subjects (6 mg QD, PASI75 responder, BD2-low-PASI-high): 2
- Number of subjects (6 mg QD, PASI75 responder, BD2-low-PASI-low): 5
- Number of subjects (6 mg QD, PASI75 responder, IL-17A-high-PASI-high): 12
- Number of subjects (6 mg QD, PASI75 responder, IL-17A-high-PASI-low): 7
- Number of subjects (6 mg QD, PASI75 responder, IL-17A-low-PASI-high): 4
- Number of subjects (6 mg QD, PASI75 responder, IL-17A-low-PASI-low): 2
- Number of subjects (6 mg QD, PASI75 responder, IL-19-high-PASI-high): 13
- Number of subjects (6 mg QD, PASI75 responder, IL-19-high-PASI-low): 6
- Number of subjects (6 mg QD, PASI75 responder, IL-19-low-PASI-high): 3
- Number of subjects (6 mg QD, PASI75 responder, IL-19-low-PASI-low): 3
- Interaction Term for PASI75 response (ratio of odds ratios) (12 mg QD vs placebo: BD2 high versus BD2 low): 14.233
- Interaction Term: treatment arm*CRP group, PASI75 (12 mg QD vs placebo: CRP high versus CRP low): 2.63
- Interaction Term: treatment arm*CRP group, PASI75 (12 mg QD vs placebo: CRP-high versus CRP-low, adjusted for baseline PASI score): 3.18
- Interaction Term: treatment arm*IL-17A group, PASI75 (12 mg QD vs placebo: IL-17A high versus IL-17A low, adjusted for baseline PASI score): 13.222
- Interaction Term for PASI75 response (ratio of odds ratios) (12 mg QD vs placebo: IL-17A high versus IL-17A low): 12.089
- Interaction Term for PASI75 response (ratio of odds ratios) (12 mg QD vs placebo: baseline PASI high versus PASI low): 6.42
- Number of subjects, PASI75 Non-responder at week 16 [1]: 7
- Number of subjects, PASI75 Responder at week 16 [1]: 18
- Number of subjects, PASI75 Non-responder at week 16 [2]: 14
- Number of subjects, PASI75 Responder at week 16 [2]: 13
- Number of subjects, PASI75 Non-responder (12 mg QD, CRP-high-PASI-high): 4
- Number of subjects, PASI75 Responder (12 mg QD, CRP-high-PASI-high): 10
- Number of subjects, PASI75 Non-responder (12 mg QD, CRP-high-PASI-low): 3
- Number of subjects, PASI75 Responder (12 mg QD, CRP-high-PASI-low): 8
- Number of subjects, PASI75 Non-responder (12 mg QD, CRP-low-PASI-high): 2
- Number of subjects, PASI75 Responder (12 mg QD, CRP-low-PASI-high): 10
- Number of subjects, PASI75 Non-responder (12 mg QD, CRP-low-PASI-low): 12
- Number of subjects, PASI75 Responder (12 mg QD, CRP-low-PASI-low): 3
- Number of subjects (12 mg QD, PASI75 non-responder at week 16, above baseline PASI median 6.6): 6
- Number of subjects (12 mg QD, PASI75 non-responder at week 16, above median baseline BD2 level): 11
- Number of subjects (12 mg QD, PASI75 non-responder at week 16, above median baseline IL-17A level): 8
- Number of subjects (12 mg QD, PASI75 non-responder at week 16, above median baseline IL-19 level): 6
- Number of subjects (12 mg QD, PASI75 non-responder at week 16, below baseline PASI median 6.6): 15
- Number of subjects (12 mg QD, PASI75 non-responder at week 16, below median baseline BD2 level): 13
- Number of subjects (12 mg QD, PASI75 non-responder at week 16, below median baseline IL-17A level): 13
- Number of subjects (12 mg QD, PASI75 non-responder at week 16, below median baseline IL-19 level): 14
- Number of subjects (12 mg QD, PASI75 non-responder, BD2-high-PASI-high): 5
- Number of subjects (12 mg QD, PASI75 non-responder, BD2-high-PASI-low): 5
- Number of subjects (12 mg QD, PASI75 non-responder, BD2-low-PASI-high): 1
- Number of subjects (12 mg QD, PASI75 non-responder, BD2-low-PASI-low): 10
- Number of subjects (12 mg QD, PASI75 non-responder, IL-17A-high-PASI-high): 5
- Number of subjects (12 mg QD, PASI75 non-responder, IL-17A-high-PASI-low): 3
- Number of subjects (12 mg QD, PASI75 non-responder, IL-17A-low-PASI-high): 1
- Number of subjects (12 mg QD, PASI75 non-responder, IL-17A-low-PASI-low): 12
- Number of subjects (12 mg QD, PASI75 non-responder, IL-19-high-PASI-high): 3
- Number of subjects (12 mg QD, PASI75 non-responder, IL-19-high-PASI-low): 3
- Number of subjects (12 mg QD, PASI75 non-responder, IL-19-low-PASI-high): 2
- Number of subjects (12 mg QD, PASI75 non-responder, IL-19-low-PASI-low): 12
- Number of subjects (12 mg QD, PASI75 responder at week 16, above baseline PASI median 6.6): 20
- Number of subjects (12 mg QD, PASI75 responder at week 16, above median baseline BD2 level): 23
- Number of subjects (12 mg QD, PASI75 responder at week 16, above median baseline IL-17A level): 18
